Columns and labels:
Format in all cases: in vivo
[1] = system: kochia (Bassia scoparia); experiment: Test C preemergence, visual plant response rating; settings: Test C, 0 is no effect, 100 is complete control
In short: (§1)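 Seeds sown in a loam–sand blend got a directed preemergence soil spray; postemergence plants (2–10 cm, one- to two-leaf stage) were sprayed with compound in a non-phytotoxic solvent plus surfactant. Injury was scored visually against untreated controls after about 10 d in a greenhouse on a 0–100 scale (100 = complete control).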

[2] = system: barnyardgrass (Echinochloa crus-galli); experiment: Test C preemergence, visual plant response rating; settings: Test C, 0 is no effect, 100 is complete control
In short: as §1

[3] = system: pigweed (Amaranthus retroflexus); experiment: Test C preemergence, visual plant response rating; settings: Test C, 0 is no effect, 100 is complete control
In short: as §1

[4] = system: foxtail, giant (giant foxtail, Setaria faberi); experiment: Test C preemergence, visual plant response rating; settings: Test C, 0 is no effect, 100 is complete control
In short: as §1

[5] = system: Italian ryegrass (Lolium mutiflorum); experiment: Test C preemergence, visual plant response rating; settings: Test C, 0 is no effect, 100 is complete control
In short: as §1

[6] = system: ragweed (common ragweed, Ambrosia artemisiifolia); experiment: Test C preemergence, visual plant response rating; settings: Test C, 0 is no effect, 100 is complete control
In short: as §1

[7] = system: barnyardgrass (Echinochloa crus-galli); experiment: Test D flooded paddy test, visual plant response rating; settings: 250 g ai/ha, scale 0 to 100 (0 no effect, 100 complete control), 13 to 15 d
In short: (§2)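 Greenhouse paddy assay scored on a 0–100 visual scale after 13 to 15 d, where 100 means complete control and a dash marks no result; dosing was into 3 cm floodwater over 2-leaf plants.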

[8] = system: duck salad (Heteranthera limosa); experiment: as above; settings: 250 g ai/ha, scale 0 to 100 (0 no effect, 100 complete control), 13 to 15 d
In short: as §2

[9] = system: sedge umbrella (small-flower umbrella sedge, Cyperus difformis); experiment: as above; settings: 250 g ai/ha, scale 0 to 100 (0 no effect, 100 complete control), 13 to 15 d
In short: as §2

[10] = system: rice (Oryza sativa); experiment: as above; settings: 250 g ai/ha, scale 0 to 100 (0 no effect, 100 complete control), 13 to 15 d
In short: as §2

[11] = system: kochia (Bassia scoparia); experiment: Test C postemergence, visual plant response rating
In short: as §1

[12] = system: corn (Zea mays); experiment: Test C postemergence, visual plant response rating
In short: as §1

[13] = system: barnyardgrass (Echinochloa crus-galli); experiment: Test C postemergence, visual plant response rating
In short: as §1

[14] = system: galium (catchweed bedstraw, Galium aparine); experiment: Test C postemergence, visual plant response rating
In short: as §1

[15] = system: blackgrass (Alopecurus myosuroides); experiment: Test C postemergence, visual plant response rating
In short: as §1

[16] = system: pigweed (Amaranthus retroflexus); experiment: Test C postemergence, visual plant response rating
In short: as §1

[17] = system: foxtail, giant (giant foxtail, Setaria faberi); experiment: Test C postemergence, visual plant response rating
In short: as §1

[18] = system: Italian ryegrass (Lolium mutiflorum); experiment: Test C postemergence, visual plant response rating
In short: as §1

[19] = system: ragweed (common ragweed, Ambrosia artemisiifolia); experiment: Test C postemergence, visual plant response rating
In short: as §1

[20] = system: wheat (Triticum aestivum); experiment: Test C postemergence, visual plant response rating
In short: as §1

[21] = Test C, postemergence, 125 g ai/ha

Row | SMILES | Kochia plant response rating (0 to 100 scale) ([1]; 31 g ai/ha) | Kochia plant response rating (0 to 100 scale) ([1]; 125 g ai/ha) | Barnyardgrass plant response rating (0 to 100 scale) ([2]; 31 g ai/ha) | Barnyardgrass plant response rating (0 to 100 scale) ([2]; 125 g ai/ha) | Pigweed plant response rating (0 to 100 scale) ([3]; 31 g ai/ha) | Pigweed plant response rating (0 to 100 scale) ([3]; 125 g ai/ha) | Foxtail, Giant plant response rating (0 to 100 scale) ([4]; 31 g ai/ha) | Foxtail, Giant plant response rating (0 to 100 scale) ([4]; 125 g ai/ha) | Ryegrass, Italian plant response rating (0 to 100 scale) ([5]; 31 g ai/ha) | Ryegrass, Italian plant response rating (0 to 100 scale) ([5]; 125 g ai/ha) | Ragweed plant response rating (0 to 100 scale) ([6]; 31 g ai/ha) | Ragweed plant response rating (0 to 100 scale) ([6]; 125 g ai/ha) | Plant response rating, Barnyardgrass (Flood) [7] | Plant response rating, Ducksalad (Flood) [8] | Plant response rating, Sedge, Umbrella (Flood) [9] | Plant response rating, Rice (Flood) [10] | Kochia plant response rating (0 to 100 scale) ([11]; Postemergence, 31 g ai/ha) | Kochia plant response rating (0 to 100 scale) [11, 21] | Corn plant response rating (0 to 100 scale) ([12]; Postemergence, 31 g ai/ha) | Corn plant response rating (0 to 100 scale) [12, 21] | further results
1 | CCO/N=C(\c1c(O)c(Cl)nn(C)c1=O)c1ccc(F)c2ccccc12 [Compound 212] | 0 | 20 | 40 | 80 | 10 | 100 | 80 | 100 | 0 | 30 | 10 | 100 | 20 | 60 | 65 | 0 | 50 | 50 | 0 | 0 | Barnyardgrass plant response rating (0 to 100 scale) ([13]; Postemergence, 31 g ai/ha): 50; Barnyardgrass plant response rating (0 to 100 scale) [13, 21]: 70; Galium plant response rating (0 to 100 scale) ([14]; Postemergence, 31 g ai/ha): 90; Galium plant response rating (0 to 100 scale) [14, 21]: 100; Blackgrass plant response rating (0 to 100 scale) ([15]; Postemergence, 31 g ai/ha): 0; Blackgrass plant response rating (0 to 100 scale) [15, 21]: 0; Pigweed plant response rating (0 to 100 scale) ([16]; Postemergence, 31 g ai/ha): 50; Pigweed plant response rating (0 to 100 scale) [16, 21]: 90; Foxtail, Giant plant response rating (0 to 100 scale) ([17]; Postemergence, 31 g ai/ha): 50; Foxtail, Giant plant response rating (0 to 100 scale) [17, 21]: 80; Ryegrass, Italian plant response rating (0 to 100 scale) ([18]; Postemergence, 31 g ai/ha): 10; Ryegrass, Italian plant response rating (0 to 100 scale) [18, 21]: 80; Ragweed plant response rating (0 to 100 scale) ([19]; Postemergence, 31 g ai/ha): 100; Ragweed plant response rating (0 to 100 scale) [19, 21]: 90; Wheat plant response rating (0 to 100 scale) ([20]; Postemergence, 31 g ai/ha): 0; Wheat plant response rating (0 to 100 scale) [20, 21]: 0
2 | CON=C(c1cc(Cl)cc(Cl)c1Cl)c1c(O)c(C)nn(C)c1=O [Compound 213] | 20 | 80 | 70 | 90 | 100 | 100 | 60 | 80 | 70 | 100 | 70 | 100 | 70 | 70 | 90 | 40 | 60 | 70 | 20 | 40 | Barnyardgrass plant response rating (0 to 100 scale) ([13]; Postemergence, 31 g ai/ha): 80; Barnyardgrass plant response rating (0 to 100 scale) [13, 21]: 80; Galium plant response rating (0 to 100 scale) ([14]; Postemergence, 31 g ai/ha): 90; Galium plant response rating (0 to 100 scale) [14, 21]: 90; Blackgrass plant response rating (0 to 100 scale) ([15]; Postemergence, 31 g ai/ha): 30; Blackgrass plant response rating (0 to 100 scale) [15, 21]: 80; Pigweed plant response rating (0 to 100 scale) ([16]; Postemergence, 31 g ai/ha): 80; Pigweed plant response rating (0 to 100 scale) [16, 21]: 90; Foxtail, Giant plant response rating (0 to 100 scale) ([17]; Postemergence, 31 g ai/ha): 70; Foxtail, Giant plant response rating (0 to 100 scale) [17, 21]: 80; Ryegrass, Italian plant response rating (0 to 100 scale) ([18]; Postemergence, 31 g ai/ha): 90; Ryegrass, Italian plant response rating (0 to 100 scale) [18, 21]: 100; Ragweed plant response rating (0 to 100 scale) ([19]; Postemergence, 31 g ai/ha): 70; Ragweed plant response rating (0 to 100 scale) [19, 21]: 80; Wheat plant response rating (0 to 100 scale) ([20]; Postemergence, 31 g ai/ha): 40; Wheat plant response rating (0 to 100 scale) [20, 21]: 60
3 | CON=C(c1cc(Cl)cc(Cl)c1Cl)c1c(O)c(C)nn(C)c1=O [Compound 214] | 20 | 70 | 70 | 90 | 80 | 100 | 80 | 100 | 90 | 100 | 20 | 100 | 70 | 70 | 70 | 45 | 70 | 80 | 30 | 40 | Barnyardgrass plant response rating (0 to 100 scale) ([13]; Postemergence, 31 g ai/ha): 70; Barnyardgrass plant response rating (0 to 100 scale) [13, 21]: 80; Galium plant response rating (0 to 100 scale) ([14]; Postemergence, 31 g ai/ha): 90; Galium plant response rating (0 to 100 scale) [14, 21]: 90; Blackgrass plant response rating (0 to 100 scale) ([15]; Postemergence, 31 g ai/ha): 30; Blackgrass plant response rating (0 to 100 scale) [15, 21]: 80; Pigweed plant response rating (0 to 100 scale) ([16]; Postemergence, 31 g ai/ha): 80; Pigweed plant response rating (0 to 100 scale) [16, 21]: 90; Foxtail, Giant plant response rating (0 to 100 scale) ([17]; Postemergence, 31 g ai/ha): 80; Foxtail, Giant plant response rating (0 to 100 scale) [17, 21]: 80; Ryegrass, Italian plant response rating (0 to 100 scale) ([18]; Postemergence, 31 g ai/ha): 80; Ryegrass, Italian plant response rating (0 to 100 scale) [18, 21]: 100; Ragweed plant response rating (0 to 100 scale) ([19]; Postemergence, 31 g ai/ha): 80; Ragweed plant response rating (0 to 100 scale) [19, 21]: 90; Wheat plant response rating (0 to 100 scale) ([20]; Postemergence, 31 g ai/ha): 40; Wheat plant response rating (0 to 100 scale) [20, 21]: 70
4 | CO/N=C(/c1ccc(Cl)c(Cl)c1)c1c(O)c(C)nn(C)c1=O [Compound 216] | 0 | 0 | 50 | 0 | 0 | 0 | 0 | 0 | 0 | 10 | 0 | 0 | 0 | 0 | 0 | 0 | 20 | 50 | 0 | 0 | Barnyardgrass plant response rating (0 to 100 scale) ([13]; Postemergence, 31 g ai/ha): 0; Barnyardgrass plant response rating (0 to 100 scale) [13, 21]: 10; Galium plant response rating (0 to 100 scale) ([14]; Postemergence, 31 g ai/ha): 30; Galium plant response rating (0 to 100 scale) [14, 21]: 80; Blackgrass plant response rating (0 to 100 scale) ([15]; Postemergence, 31 g ai/ha): 0; Blackgrass plant response rating (0 to 100 scale) [15, 21]: 0; Pigweed plant response rating (0 to 100 scale) ([16]; Postemergence, 31 g ai/ha): 0; Pigweed plant response rating (0 to 100 scale) [16, 21]: 20; Foxtail, Giant plant response rating (0 to 100 scale) ([17]; Postemergence, 31 g ai/ha): 0; Foxtail, Giant plant response rating (0 to 100 scale) [17, 21]: 0; Ryegrass, Italian plant response rating (0 to 100 scale) ([18]; Postemergence, 31 g ai/ha): 0; Ryegrass, Italian plant response rating (0 to 100 scale) [18, 21]: 0; Ragweed plant response rating (0 to 100 scale) ([19]; Postemergence, 31 g ai/ha): 10; Ragweed plant response rating (0 to 100 scale) [19, 21]: 40; Wheat plant response rating (0 to 100 scale) ([20]; Postemergence, 31 g ai/ha): 0; Wheat plant response rating (0 to 100 scale) [20, 21]: 0
